Where “and” joins values, the source holds several entries; their conditions need not be identical. Equal entries are not always repeated.
What was measured:
TGase II [1] = assay: TGase II assay of rat lung tissue after inhaled 13-cis RA (experiment B); type: in vivo; conditions: for TGase II assay / TGase II assay DPM/µg protein: rat lung
Description: Male rats (n=23) (Sprague-Dawley from Charles River) were divided into six experimental groups and were given varying amounts of 13-cis RA through an inhalant apparatus once daily for different times each day for 14 days. The experimental groups were as follows (Table 1) :1.Vehicle control : rats (3) inhaled vehicle for 240 minutes; 2. Low dose 13-cis RA: rats (4) inhaled a solution containing 13-cis RA at a concentration of 62.2µg/liter (inhaled dose 115.0µg/kg body weight) in 5 minutes; 3. Low-Middle dose 13-cis RA : rats (4) inhaled a solution containing 13-cis RA at a concentration of 62.2µg/liter (inhaled dose 334.4µg/kg body weight) in 15 minutes; 4.Middle dose 13-cis RA: rats (4) inhaled a solution containing 13-cis RA at a concentration of 62.2µg/liter (inhaled dose 1012.3µg/kg body weight) in 45 minutes; 5. Middle-High dose 13-cis RA : rats (4) inhaled a solution containing 13-cis RA at a concentration of 62.2µg/liter (inhaled dose 2843.4µg/kg body weight) in 120 minutes; 6. High dose 13-cis RA : rats (4) inhaled a solution containing 13-cis RA at a concentration of 62.2µg/liter (inhaled dose 5935.6µg/kg body weight) in 240 minutes. […]
(§1) Enzyme assay mixtures were prepared by adding 80µl of SUBSTRATE mixture (322.8µl H2O, 120µl 0.5M NaBorate, 60µl 0.01M EDTA, 60µl 0.1M CaCl2, 6µl 1M DTT, 240µl dimethyl casein, 30µl Triton X-100, 1.2µl [^3H]-Putrescine, 120µl Putrescine) to 20µl sample, 20µl scraping buffer for blank control , 20 µl (18µl scraping buffer + 2µl TGase II) for positive control. Samples were mixed in 15ml tubes, the tubes were shaken before putting them into a 28°C water bath for 30 minutes. Reactions were slowed down in an ice bath. 80µl of the incubation mixture was adsorbed onto paper disks. These were immediately dropped into cold 10% TCA (0.1% Putrescine) and washed with agitation for 7 minutes, followed by 2 additional washes with 5% TCA (0.05% putrescine) for 5~7 minutes, and once more with cold (-20°C) 95% ethanol for 5 minutes. Paper disks were dried and placed into 5ml Aquasol, and counted in a Liquid Scintillation Counter. Protein concentration determination was conducted by the Bradford method.

[2] = system: urethane-induced lung cancer; conditions: orally administered, over 300 mg/kg weekly; cited from earlier work
lung metaplasia = conditions: Oral doses of I mg/kg, smokers; cited from earlier work
TGase II [3] = assay: TGase II activity in cultured MCF-7 cells; type: cell-based, human
Description: MCF-7 cells were seeded at a density of 1.5 x 10^5 cells/ml medium (500ml DMEM + 56.2ml FBS + 5.6m1 AB/AM) in 6cm diameter dishes for 24 hours and treated with either DMSO, RA, or 13-cis RA at 10^-6 M and grown to confluence (about 72 hours). Cells were harvested and Transglutaminase II activity was measured as described below. Nebulizer solution, inhalation procedures, details of animal housing are described below.
Cultured cells were placed in 100 µl scraping buffer [A: 2800µl (400µl 0.5M Na-Phosphate, 500µl 0.01M EDTA, 100µl 1M DTT , 9ml PBS total 10ml) + B:700µl (10µl 20mg/ml PMSF 790µl PBS total 800µl)] for each dish. Cells were broken by a sonicator and kept in ice until used. TGase II assay was conducted as described below and previously {8217}.
as §1

[4] = High: 240 minutes daily 14 Days, 1872µg/kg total deposited dose
[5] = Low-Middle: 15 minutes daily 14 Days, 117µg/kg total deposited dose
[6] = Middle-High: 120 minutes daily 14 Days, 936µg/kg total deposited dose
[7] = Middle: 45 minutes daily 14 Days, 351µg/kg total deposited dose

With `CC1=C(/C=C/C(C)=C/C=C/C(C)=C\C(=O)O)C(C)(C)CCC1` [13-cis RA, 13-cis-Retinoic Acid] the “stimulation of lung TGase II activity” value (TGase II [1]; maximum, inhaled dose of 1012.3µg/kg, 45 minutes of inhalation, 14 days) was 2.9 Fold, the “TGase II assay” value (TGase II [1]; [4]) was 0.1025 +/- 0.004 picomoles/µg protein/30 min and 0.1025 ± 0.004 picomoles/µg protein/30 min and the “TGase II assay DPM/µg protein” value (TGase II [1]; [4]) was 8053 DPM/µg protein. The “TGase II assay” value (TGase II [1]; [5]) was 0.1150 +/- 0.006 picomoles/µg protein/30 min and 0.1150 ± 0.006 picomoles/µg protein/30 min, the “TGase II assay DPM/µg protein” value (TGase II [1]; [5]) was 9035 DPM/µg protein and the “TGase II assay DPM/µg protein” value (TGase II [1]; Low: 5 minutes daily 14 Days, 39µg/kg total deposited dose) was 7503 DPM/µg protein. The “TGase II assay” value (TGase II [1]; Low: 5 minutes daily 14 Days, 39µg/kg total deposited dose, vehicle 0.0450) was 0.0955 +/- 0.004 picomoles/µg protein/30 min and 0.0955 ± 0.004 picomoles/µg protein/30 min, the “TGase II assay” value (TGase II [1]; [6]) was 0.1020 +/- 0.005 picomoles/µg protein/30 min and 0.1020 ± 0.005 picomoles/µg protein/30 min and the “TGase II assay DPM/µg protein” value (TGase II [1]; [6]) was 8014 DPM/µg protein. The “TGase II assay” value (TGase II [1]; [7]) was 0.1330 +/- 0.009 picomoles/µg protein/30 min, the “TGase II assay DPM/µg protein” value (TGase II [1]; [7]) was 10449 DPM/µg protein and the “stimulation of lung TGase II activity” value (TGase II [1]; with larger amounts of inhaled retinoid) was 1.2 fold. The “prevention of urethane-induced lung cancer” value [2] was “failed to prevent urethane-induced lung cancer”, the “reversal of lung metaplasia” value (lung metaplasia) was “failed even to reverse lung metaplasia” and the fold induction at 1 µM (TGase II [3]; Homo sapiens, MCF7, 72 h, read-out: stimulating TGase II activity) was 6.1. The “TGase II Activity” value (TGase II [3]; MCF-7 cells, 10^-6 M, 72 hours, DMSO control 0.183) was 1.118 +/- 0.016 picomoles/µg protein/30 minutes.
